Reference: PMC6627374, “Effects of the Pentapeptide P33 on Memory and Synaptic Plasticity in APP/PS1 Transgenic Mice: A Novel Mechanism Presenting the Protein Fe65 as a Target” (International Journal of Molecular Sciences, 2019)

Target: T1, Fe65-WW domain (WW domain of Fe65) (Homo sapiens, UniProt O00213)
T1 construct: made in house; host or cells: chemical solid-phase peptide synthesis (Fmoc, Rink Amide AM resin); no expression host
T1 sequence (O00213 253-285 limits assumed): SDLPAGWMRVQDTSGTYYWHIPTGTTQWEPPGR
Assay: ITC binding to Fe65-WW
Parameters: species or system human and mouse (WW domain identical)
Details: 310 K, PBS pH 7.4, Fe65-WW 83.5 μM in cell, PPPPP 1.056 mM in syringe (control)
Method: Synthesis of acetyl-Fe65-WW, acetyl-Pin1-WW, and the control PPPPP (structures involved in Figure 2) was carried out on a Rink Amide AM (0.3 mmol∙g^−1) resin using Fmoc chemistry and activation with HATU in the presence of DIPEA. Cleavage was achieved by a treatment with TFA/H2O/triisopropylsilane/1,4-dithio-DL-threitol/phenol (90:5:3:1:1) at room temperature (RT). TFA was removed in vacuo, the peptides were then precipitated using cold, dry diethyl-ether, dissolved in ACN/H2O and lyophilized.
Isothermal titrations were performed using a Microcal VP-ITC (Malvern Instruments, Malvern, UK) microcalorimeter. Binding experiments were carried out in degassed phosphate-buffered saline (PBS) at pH 7.4. The concentrations of Fe65-WW and Pin1-WW were normalized for the peptide contents. In one titration experiment, 10-μL portions of the ligand-containing solution (P33 or PPPPP) were injected from a computer-controlled 300-μL microsyringe at intervals of 300 s into the solution of the WW domain (Fe65-WW or Pin1-WW), dissolved in the same buffer as for the ligand. The rev of the microsyringe was set to 307 rpm. Measurements were repeated twice at 310 K. The starting concentrations of Fe65-WW and Pin1-WW in the cell were 83.5 and 81.4 μM, respectively, and the concentrations of the stock solutions containing P33 or PPPPP in the syringe were 1.006 and 1.056 mM, respectively. Control experiments were performed by injecting P33 or PPPPP into the cell containing plain buffer without the WW domain, with results achieved via subtracting the dilution heats from those measured in the presence of the WW domain.

For “PPPPP [control pentapeptide PPPPP, reference compound]”, the “binding to Fe65-WW (in words)” value was “no binding between the Fe65-WW and the pentapeptide could be observed”.
